Test results reported in ChEMBL document CHEMBL4396888, “Design and Synthesis of Potent, Selective Inhibitors of Protein Arginine Methyltransferase 4 against Acute Myeloid Leukemia” (J Med Chem, 2019).
Calls of active or inactive are those of the source. The rule behind the calls is not given here.

Columns and labels:
[1] = biological target: T1, Histone-arginine methyltransferase CARM1 (Homo sapiens, UniProt Q86X55); assay: Inhibition of PRMT4 in human MOLM13 cells assessed as reduction in BAF155 dimethylation measured after 96 hrs by Western blotting analysis; assay type: cell-based
T1 sequence (Q86X55 whole entry): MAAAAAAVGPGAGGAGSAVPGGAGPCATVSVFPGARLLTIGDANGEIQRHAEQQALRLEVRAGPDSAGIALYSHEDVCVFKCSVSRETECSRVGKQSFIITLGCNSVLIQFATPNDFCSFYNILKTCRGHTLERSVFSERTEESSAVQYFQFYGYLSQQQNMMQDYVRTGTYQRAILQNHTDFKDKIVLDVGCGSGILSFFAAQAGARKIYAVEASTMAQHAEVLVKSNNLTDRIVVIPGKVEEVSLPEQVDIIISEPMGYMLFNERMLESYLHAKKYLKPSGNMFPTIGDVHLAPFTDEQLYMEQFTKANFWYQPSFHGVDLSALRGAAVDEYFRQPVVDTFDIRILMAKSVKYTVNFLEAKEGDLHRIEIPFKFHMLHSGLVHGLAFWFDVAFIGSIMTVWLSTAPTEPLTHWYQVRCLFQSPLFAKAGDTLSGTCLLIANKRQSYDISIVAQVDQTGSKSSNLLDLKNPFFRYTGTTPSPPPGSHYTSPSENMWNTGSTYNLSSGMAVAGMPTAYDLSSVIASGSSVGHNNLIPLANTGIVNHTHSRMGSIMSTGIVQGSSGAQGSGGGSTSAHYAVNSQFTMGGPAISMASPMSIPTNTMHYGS

[2] = biological target: Histone-lysine N-methyltransferase EZH2 (Homo sapiens) (UniProt Q15910); assay: Inhibition of EZH2 (unknown origin) up to 50 uM preincubated for 10 mins followed by peptide substrate addition and measured after 4 hrs in presence of SAM by HTRF assay
[3] = AUC (0 to infinity) in ICR mouse at 10 mg/kg, po administered via gavage by mass spectrometric analysis; assay type: ADME, organism-based; parameters: dose 10 mg/kg, time infinity, route oral; conditions: in vivo
[4] = Protein binding in mouse plasma at 2 uM; assay type: ADME, cell-free; conditions: read-out: PPB (converted)
[5] = AUC (0 to last) in ICR mouse at 3 mg/kg, iv by mass spectrometric analysis; assay type: ADME, organism-based; parameters: dose 3 mg/kg, route intravenous, time 0 - last; conditions: in vivo
[6] = AUC (0 to last) in ICR mouse at 10 mg/kg, po administered via gavage by mass spectrometric analysis; assay type: ADME, organism-based; parameters: dose 10 mg/kg, route oral, time 0 - last; conditions: in vivo
HEL = assay: Antiproliferative activity against HEL cells measured after 6 days by CCK8/SRB assay; assay type: functional, cell-based; conditions: Homo sapiens
[7] = biological target: Protein arginine N-methyltransferase 7 (Homo sapiens, UniProt Q9NVM4); assay: Inhibition of recombinant full-length human PRMT7 expressed in Sf9 insect cells using Ac-KKDGKKRKRSRKESYK-biotin as substrate measured after 30 mins in presence of SAM by topcount scintillation counting method
MOLM-13 [8] = assay: Induction of apoptosis in human MOLM13 cells measured after 96 hrs by Annexin V-FITC/propidium iodide staining-based flow cytometry; assay type: functional, cell-based
[9] = biological target: Protein arginine N-methyltransferase 1 (Homo sapiens, UniProt Q99873); assay: Inhibition of PRMT1 (unknown origin) preincubated for 15 mins followed by substrate addition and measured after 60 mins by AlphaLisa assay
[10] = biological target: Protein arginine N-methyltransferase 8 (Homo sapiens, UniProt Q9NR22); assay: Inhibition of PRMT8 (unknown origin) preincubated for 15 mins followed by substrate addition and measured after 60 mins by AlphaLisa assay
[11] = Drug level in tumor of nude BALB/c mouse xenografted with human MOLM13 cells at 100 mg/kg, po administered daily for 18 days measured 6 hrs post-last dose by LC-MS/MS analysis; assay type: ADME, organism-based, Neoplasm; conditions: read-out: Drug uptake
[12] = Oral bioavailability in ICR mouse at 10 mg/kg administered via gavage by mass spectrometric analysis; assay type: ADME, organism-based; conditions: in vivo
[13] = biological target: Histone-lysine N-methyltransferase, H3 lysine-79 specific (Homo sapiens) (UniProt Q8TEK3); assay: Inhibition of DOT1L (unknown origin) up to 50 uM preincubated for 15 mins followed by substrate addition and measured after 60 mins by AlphaLisa assay
[14] = biological target: Histone-lysine N-methyltransferase NSD2 (Homo sapiens) (UniProt O96028); assay: Inhibition of NSD2 (unknown origin) up to 50 uM preincubated for 15 mins followed by substrate addition and measured after 60 mins by AlphaLisa assay
[15] = Ratio of drug level in tumor of nude BALB/c mouse xenografted with human MOLM13 cells to IC50 for antiproliferative activity against human MOLM13 cells; assay type: cell-based
RS4-11 = assay: Antiproliferative activity against human RS4:11 cells measured after 6 days by CCK8/SRB assay; assay type: functional, cell-based
[16] = Toxicity in nude BALB/c mouse xenografted with human MOLM13 cells assessed as visible changes at 100 mg/kg, po administered daily for 18 days; assay type: organism-based; conditions: in vivo, 432 h
[17] = biological target: Protein arginine N-methyltransferase 6 (Homo sapiens, UniProt Q96LA8); assay: Inhibition of PRMT6 (unknown origin) preincubated for 15 mins followed by substrate addition and measured after 60 mins by AlphaLisa assay
MOLM-13 [18] = assay: Cell cycle arrest in human MOLM13 cells assessed as decrease in accumulation at S-phase measured after 72 hrs by propidium iodide staining-based flow cytometry; assay type: functional
[19] = AUC (0 to infinity) in ICR mouse at 3 mg/kg, iv by mass spectrometric analysis; assay type: ADME, organism-based; parameters: dose 3 mg/kg, route intravenous, time infinity; conditions: in vivo

Protein arginine N-methyltransferase 8, sequence (Q9NR22 whole entry): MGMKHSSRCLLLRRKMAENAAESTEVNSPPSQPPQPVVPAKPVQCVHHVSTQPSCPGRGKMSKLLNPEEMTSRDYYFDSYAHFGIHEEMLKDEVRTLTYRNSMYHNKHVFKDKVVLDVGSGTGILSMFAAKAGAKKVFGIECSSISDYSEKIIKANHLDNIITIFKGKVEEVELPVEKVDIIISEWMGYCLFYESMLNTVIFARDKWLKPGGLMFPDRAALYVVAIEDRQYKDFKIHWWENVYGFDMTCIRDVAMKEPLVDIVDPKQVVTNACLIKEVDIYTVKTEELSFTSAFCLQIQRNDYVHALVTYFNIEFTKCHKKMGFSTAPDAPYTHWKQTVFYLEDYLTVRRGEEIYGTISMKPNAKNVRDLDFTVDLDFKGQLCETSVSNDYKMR
Histone-lysine N-methyltransferase, H3 lysine-79 specific (Homo sapiens), sequence (Q8TEK3 whole entry, looked up): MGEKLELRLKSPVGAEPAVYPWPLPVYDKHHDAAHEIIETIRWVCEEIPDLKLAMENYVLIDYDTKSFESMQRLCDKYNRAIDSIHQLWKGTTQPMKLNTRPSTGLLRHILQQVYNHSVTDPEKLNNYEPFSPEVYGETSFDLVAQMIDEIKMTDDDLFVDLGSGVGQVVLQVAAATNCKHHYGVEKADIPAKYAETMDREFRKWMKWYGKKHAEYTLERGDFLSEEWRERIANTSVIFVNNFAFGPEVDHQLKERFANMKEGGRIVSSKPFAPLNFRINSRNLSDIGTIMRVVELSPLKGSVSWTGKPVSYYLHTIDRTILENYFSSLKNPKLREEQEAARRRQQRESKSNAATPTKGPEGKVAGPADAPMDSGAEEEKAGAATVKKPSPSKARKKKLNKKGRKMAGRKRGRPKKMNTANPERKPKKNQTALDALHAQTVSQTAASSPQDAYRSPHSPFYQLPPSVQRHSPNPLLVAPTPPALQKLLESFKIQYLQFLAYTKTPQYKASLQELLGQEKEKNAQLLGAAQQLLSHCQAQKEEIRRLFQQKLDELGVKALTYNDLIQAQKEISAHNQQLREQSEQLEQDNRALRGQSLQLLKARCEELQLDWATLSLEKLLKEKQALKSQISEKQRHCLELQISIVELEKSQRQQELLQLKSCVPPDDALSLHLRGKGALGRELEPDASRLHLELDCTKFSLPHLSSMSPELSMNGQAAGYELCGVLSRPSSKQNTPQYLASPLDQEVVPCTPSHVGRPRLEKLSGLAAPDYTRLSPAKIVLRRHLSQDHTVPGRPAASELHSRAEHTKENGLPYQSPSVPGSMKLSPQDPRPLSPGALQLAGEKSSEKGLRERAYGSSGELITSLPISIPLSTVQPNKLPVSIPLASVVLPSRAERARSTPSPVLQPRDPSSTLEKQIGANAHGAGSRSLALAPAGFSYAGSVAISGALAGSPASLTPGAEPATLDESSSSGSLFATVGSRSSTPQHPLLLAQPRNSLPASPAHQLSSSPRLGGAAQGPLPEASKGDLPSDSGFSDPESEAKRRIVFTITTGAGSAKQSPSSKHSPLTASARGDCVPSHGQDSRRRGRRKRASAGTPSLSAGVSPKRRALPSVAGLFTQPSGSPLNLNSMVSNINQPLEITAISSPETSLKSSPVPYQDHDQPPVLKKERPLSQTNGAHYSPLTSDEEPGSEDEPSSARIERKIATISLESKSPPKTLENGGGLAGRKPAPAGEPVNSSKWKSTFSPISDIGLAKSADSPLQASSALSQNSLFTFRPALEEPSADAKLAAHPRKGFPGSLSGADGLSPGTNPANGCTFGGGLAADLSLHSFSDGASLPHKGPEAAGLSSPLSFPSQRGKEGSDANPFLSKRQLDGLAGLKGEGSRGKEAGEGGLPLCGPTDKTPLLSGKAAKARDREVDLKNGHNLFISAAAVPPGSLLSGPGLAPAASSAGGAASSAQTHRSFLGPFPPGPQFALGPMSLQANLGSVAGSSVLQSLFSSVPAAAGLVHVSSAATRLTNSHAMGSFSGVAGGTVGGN
Protein arginine N-methyltransferase 7, sequence (Q9NVM4 whole entry): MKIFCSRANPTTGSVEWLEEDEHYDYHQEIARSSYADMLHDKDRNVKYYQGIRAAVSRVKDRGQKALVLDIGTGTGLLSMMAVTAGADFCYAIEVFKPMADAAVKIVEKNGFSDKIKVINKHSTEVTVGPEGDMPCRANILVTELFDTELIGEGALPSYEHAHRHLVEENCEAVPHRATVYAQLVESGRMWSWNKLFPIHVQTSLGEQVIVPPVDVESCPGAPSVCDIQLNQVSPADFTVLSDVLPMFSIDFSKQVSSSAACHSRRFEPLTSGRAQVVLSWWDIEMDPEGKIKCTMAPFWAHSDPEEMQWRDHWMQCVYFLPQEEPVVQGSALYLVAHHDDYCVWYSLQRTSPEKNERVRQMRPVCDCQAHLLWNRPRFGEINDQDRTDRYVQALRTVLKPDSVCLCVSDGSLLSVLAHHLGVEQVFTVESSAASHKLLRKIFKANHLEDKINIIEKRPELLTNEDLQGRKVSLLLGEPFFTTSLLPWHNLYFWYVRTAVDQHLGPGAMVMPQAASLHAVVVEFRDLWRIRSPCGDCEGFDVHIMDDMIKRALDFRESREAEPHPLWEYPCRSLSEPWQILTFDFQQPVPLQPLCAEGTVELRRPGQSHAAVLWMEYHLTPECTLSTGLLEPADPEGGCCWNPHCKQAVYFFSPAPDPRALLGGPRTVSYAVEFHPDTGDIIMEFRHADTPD
Histone-lysine N-methyltransferase NSD2 (Homo sapiens), sequence (O96028 whole entry): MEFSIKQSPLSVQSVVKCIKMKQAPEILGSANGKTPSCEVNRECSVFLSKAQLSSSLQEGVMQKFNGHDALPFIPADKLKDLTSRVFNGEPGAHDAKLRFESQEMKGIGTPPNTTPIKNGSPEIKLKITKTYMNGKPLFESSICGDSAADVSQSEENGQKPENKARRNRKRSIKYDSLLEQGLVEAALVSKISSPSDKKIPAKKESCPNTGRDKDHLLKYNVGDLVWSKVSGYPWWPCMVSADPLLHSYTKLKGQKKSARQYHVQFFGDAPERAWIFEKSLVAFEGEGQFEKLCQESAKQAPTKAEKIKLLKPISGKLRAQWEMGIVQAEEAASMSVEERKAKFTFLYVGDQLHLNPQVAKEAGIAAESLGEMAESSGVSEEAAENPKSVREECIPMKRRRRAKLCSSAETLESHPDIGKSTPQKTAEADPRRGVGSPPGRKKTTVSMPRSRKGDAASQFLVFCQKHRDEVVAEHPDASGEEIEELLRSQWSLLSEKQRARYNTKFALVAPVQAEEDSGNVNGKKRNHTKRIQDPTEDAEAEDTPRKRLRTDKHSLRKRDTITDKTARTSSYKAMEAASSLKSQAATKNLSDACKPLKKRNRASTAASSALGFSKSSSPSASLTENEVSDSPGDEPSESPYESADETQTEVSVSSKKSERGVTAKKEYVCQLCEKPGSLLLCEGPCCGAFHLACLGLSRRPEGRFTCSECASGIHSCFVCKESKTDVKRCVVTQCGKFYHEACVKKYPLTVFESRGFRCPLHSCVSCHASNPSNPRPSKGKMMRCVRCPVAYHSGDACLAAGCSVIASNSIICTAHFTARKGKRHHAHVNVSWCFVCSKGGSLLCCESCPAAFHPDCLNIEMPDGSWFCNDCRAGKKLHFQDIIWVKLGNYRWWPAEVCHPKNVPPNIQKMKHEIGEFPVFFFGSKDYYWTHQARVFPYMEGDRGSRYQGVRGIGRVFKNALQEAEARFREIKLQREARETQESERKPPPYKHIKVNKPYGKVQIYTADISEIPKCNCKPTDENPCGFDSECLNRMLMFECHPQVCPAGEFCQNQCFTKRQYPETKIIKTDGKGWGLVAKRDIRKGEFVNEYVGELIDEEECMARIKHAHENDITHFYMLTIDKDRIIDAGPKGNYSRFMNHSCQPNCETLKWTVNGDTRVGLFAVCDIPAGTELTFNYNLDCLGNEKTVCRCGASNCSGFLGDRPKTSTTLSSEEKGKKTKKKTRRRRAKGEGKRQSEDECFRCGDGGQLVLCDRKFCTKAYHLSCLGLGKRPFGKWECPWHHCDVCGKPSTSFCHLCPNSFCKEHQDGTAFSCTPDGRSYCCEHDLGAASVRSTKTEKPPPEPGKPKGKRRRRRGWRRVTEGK
Protein arginine N-methyltransferase 6, sequence (Q96LA8 whole entry): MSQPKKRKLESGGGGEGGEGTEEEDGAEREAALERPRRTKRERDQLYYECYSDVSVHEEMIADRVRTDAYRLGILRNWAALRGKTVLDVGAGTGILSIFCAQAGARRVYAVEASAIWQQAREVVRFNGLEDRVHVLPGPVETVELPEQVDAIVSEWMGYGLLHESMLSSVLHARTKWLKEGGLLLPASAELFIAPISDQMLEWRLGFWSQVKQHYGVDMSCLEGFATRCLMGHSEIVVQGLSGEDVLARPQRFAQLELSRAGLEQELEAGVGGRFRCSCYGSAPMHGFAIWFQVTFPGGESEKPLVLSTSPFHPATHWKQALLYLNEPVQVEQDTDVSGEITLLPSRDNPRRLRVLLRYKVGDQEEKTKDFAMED
Protein arginine N-methyltransferase 1, sequence (Q99873 whole entry): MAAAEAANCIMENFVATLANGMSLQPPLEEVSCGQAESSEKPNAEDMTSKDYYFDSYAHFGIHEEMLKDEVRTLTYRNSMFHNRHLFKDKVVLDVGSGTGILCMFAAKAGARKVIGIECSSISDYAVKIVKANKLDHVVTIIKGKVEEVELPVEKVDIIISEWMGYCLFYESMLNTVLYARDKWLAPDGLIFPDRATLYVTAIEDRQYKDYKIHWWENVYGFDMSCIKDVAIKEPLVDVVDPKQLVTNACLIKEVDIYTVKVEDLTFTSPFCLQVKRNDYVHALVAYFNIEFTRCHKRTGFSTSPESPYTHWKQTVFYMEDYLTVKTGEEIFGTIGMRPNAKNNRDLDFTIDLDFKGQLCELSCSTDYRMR

## CNC[C@@H](O)CN1CCc2c(cccc2OCc2ccc(-c3nccs3)cc2)C1
[1]
  IC50: 369 nM
[2]
  inhibition: inactive
[3]
  AUC(0-inf): 3030 ng·h/mL
[4]
  fraction unbound at 2 µM: 0.02
[5]
  AUC(0-t): 869 ng·h/mL
[6]
  AUC(0-t): 1410 ng·h/mL
HEL
  Activity: Dose-dependent effect
[7]
  IC50: > 30 µM
MOLM-13 [8]
  Activity: Dose-dependent effect
[9]
  IC50: 8.6 µM
[10]
  IC50: 3.7 µM
[11]
  concentration at 6 h: 80700 ng/g
[12]
  bioavailability: 48.8%
[13]
  inhibition: inactive
[14]
  inhibition: inactive
[15]
  Ratio: 20 to 30
RS4-11
  Activity: Dose-dependent effect
[16]
  Activity: Non-Toxic
[17]
  IC50: 7.9 µM
MOLM-13 [18]
  Activity: Dose-dependent effect
[19]
  AUC(0-inf): 1160 ng·h/mL
